According to patent US20120093876A1, “Ophthalmic Formulations, Methods Of Manufacture And Methods of Normalizing Meibomian Gland Secretions” (Aciex, Inc., priority 2010, published 2012):
Structures can show the parent of a compound that is named as a salt.

Columns and labels:
[1] = Comfort of hydrophilic excipient bases; format: in vivo; settings: hydrophilic base
Text: (§1) The purpose of this study was to investigate the feasibility of formulating Minocycline HCl in a ‘gelment’ with a medicated swab container closure. Specifically, formulation feasibility and stability with hydrophilic bases (PEG 400, propylene glycol, glycerol) investigated. Glycerin was unacceptable from a comfort perspective. […] (Following 3 weeks at 25/40, epi-minocycline was 20.7% for PEG 400 base and 2.9% for propylene glycol base.) Degradation was not detected following e-beam irradiation of Minocycline suspended in light mineral oil (single-point testing performed following irradiation—no stability evaluation).

[2] = Degradation after e-beam irradiation; format: physicochemical; settings: suspended in light mineral oil; single-point testing following irradiation
Text: as §1

[3] = Excipient compatibility stability screen, minocycline quantitated by HPLC; settings: in mineral oil, relative to castor and olive oil
[4] = Batch uniformity and stability of micronized and unmicronized oil and ointment formulations; format: physicochemical; settings: jetmilling or cryomilling; 2 batches of drug substance
Protocol: Two Minocycline HCl drug substance batches were micronized (by jetmilling and cryomilling) and evaluated for chemical properties post-micronization. Jetmilled, cryomilled, and unmicronized oil and ointment formulations were evaluated for batch uniformity and stability.
Oil formulations were 100% oil and ointments were 100% petrolatum. […]. […] evaluated with respect to solubility in light mineral oil.
[…]. The oil suspensions in this study provided consistent T0 results, unlike the earlier oil formulations with unmicronized Minocycline HCl.

| Comfort [1] | Degradation following e-beam irradiation [2] | Stability (degree of epimerization) in excipient [3] | Change in assay following micronization [4] | Structure (SMILES) |
| --- | --- | --- | --- | --- |
| unacceptable |  |  |  | OCC(O)CO [Glycerin] |
|  | not detected | greatest stability | No change | CN(C)c1ccc(O)c2c1C[C@H]1C[C@H]3[C@H](N(C)C)C(O)=C(C(N)=O)C(=O)[C@@]3(O)C(O)=C1C2=O [Minocycline HCl] |
